Measurements reported in patent US20080004302A1, “Novel Compounds” (ASTRAZENECA AB, priority 2006, published 2008).
pIC50: −log10 of the molar value. Counter-ions that a name gives are not always drawn. Like-named read-outs stand apart in the source and are kept apart here.

Experiments:
[1] = target: T1, FGFR kinase domain (Homo sapiens, UniProt P11362, C488A/C584S); assay: Kinase assay (ELISA) for inhibition of FGFR activity; format: biochemical; details: FGFR inhibition tests, ELISA kinase assay; read-out: Activity class
T1 construct: FGFR kinase domain (amino acids 458-765, C488A, C584S) N-terminally fused to a His6-tag; made in house
Protocol: To determine inhibition of FGFR activity, kinase assays were conducted using ELISA (Enzyme-Linked Immunosorbent Assay) technology.
Kinase activity assays were performed in 384-well polypropylene plates (Matrix, 4311) with a total volume of 40 μl in each well. Each well was coated with 2 μg of polyEAY substrate (Sigma, P3899) at 4° C. overnight. The plates were then washed once with 100 μl PBS and once with 100 μl 50 mM HEPES (pH 7.4) prior to the addition of the kinase assay reagents. […] Various concentrations of test compounds were each added in 5% (v/v) DMSO to yield a final assay DMSO concentration of 1.25% (v/v). The kinase reactions were incubated at room temperature for 45 minutes and stopped by washing the plate three times with 100 μl PBS plus 0.05% Tween. […] Following this, the plates were then washed repeatedly with 100 μl PBS plus 0.05% Tween to remove all traces of the antibody solution. 40 μl of 50 μg/ml 3,3′,5,5′-Tetramethylbenzidine (Sigma, T2885), 0.05M phosphate-citrate buffer, containing 0.03% sodium perborate was added to each well and the plates incubated at room temperature for twelve minutes. The colour reaction was stopped by the addition of 20 μl 2M H2SO4 and the plates read at 450 nm on a Spectrafluor Plus (Tecan).

[2] = target: T2, FGFR1 IIIc (Homo sapiens, UniProt P11362); assay: Cell based inhibition of transiently expressed FGFR1 IIIc phosphorylation via use of ECHO technology (Cos-1 cells)
T2 construct: host or cells: Cos-1

[3] = target: FGFR1 kinase (Homo sapiens, UniProt P11362); assay: Kinase assay (using Caliper technology); format: biochemical
How it was run: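 Human FGFR1 kinase activity measured with a 13-mer fluorescently tagged FGFR1-specific peptide substrate; compounds serially diluted in 5% (v/v) DMSO. Reactions ran 1.5 h at room temperature, stopped with EDTA-containing HEPES pH 7.5 buffer. Phosphorylated and unphosphorylated peptide separated by microfluidic mobility shift.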

[4] = target: T2, FGFR1 IIIc; assay: Cell based inhibition of transiently expressed FGFR1 IIIc phosphorylation (Cos-1 cells)
Protocol: This assay is designed to detect inhibitors of transiently expressed FGFR1 phosphorylation by antibody staining of fixed cells detected using ArrayScan technology.
To undertake the assay, Cos-1 cells were harvested at 90-95% confluence for cell transfection. For each 96-well plate, 24 ul Lipofectamine 2000 was added to 809 ul OptiMEM and incubated at room temperature for 5 minutes. […] Equal volumes of DNA and Lipofectamine 2000 were combined (DNA: Lipid=1:1.2 ratio) and incubated at room temperature for 20 minutes.
The harvested Cos-1 cells are counted using a coulter counter and diluted further with 1% FCS/DMEM to 2.5×10^5 cells/ml. For each 96-well, 8.33 ml cells were required. […] Media was removed from the wells using vacuum aspiration; cells were fixed by adding 50μl of 100% methanol to each well and incubated at room temperature for 20 minutes.
The plates were read on an Arrayscan (Cellomics).

[5] = target: T3, human IGF1R (Homo sapiens, UniProt P08069); assay: Inhibition of insulin-like growth factor-1 receptor phosphorylation in R+ cells; format: cell-based; details: 30 nM IGF1, read-out: IGF cell class
T3 construct: expressed in transfected cells; host or cells: R+ cells (R- mouse fibroblasts transfected with human IGF1R)

[6] = tested on: Erk phosphorylation; assay: Growth factor (bFGF) stimulated Erk phosphorylation in NIH 3T3 cells; details: Mus musculus, NIH3T3, NIH 3T3 cells, 3 ng/ml bFGF
Description: These and other assays were used to evaluate the ability of a test compound to inhibit growth factor stimulated cellular signalling in mammalian cell lines. This was achieved by measuring the amount of receptor tyrosine kinase regulated Erk phosphorylation within a cell following compound treatment.
NIH 3T3 (ECACC, 93061524) cells were routinely passaged in DMEM (Gibco BRL, 41966) plus 10% foetal calf serum (FCS), 1% L-glutamine (Gibco BRL, 25030) to a confluence not greater than 80%. To undertake the assay, NIH 3T3's were seeded at 1×10^4 cells/well in DMEM plus 10% foetal calf serum, 1% L-glutamine in 96 well plates (Costar, 3904) and incubated at 37° C. (+5% CO2) in a humidified incubator. Once the cells had fully adhered (typically following 4-5 hours incubation) the media was removed from each well and the cells gently washed with 100μl warm serum free media. 90μl of serum free DMEM plus 1% L-glutamine was then added to each well and the plates were returned to a humidified 37° C. (+5% CO2) incubator. The following day, the plates were dosed with 10[l compound (diluted from 10 mM stock in DMSO using serum free DMEM) and the plates were returned to a humidified 37° C. (+5% CO2) incubator for one hour. NIH 3T3 cells were then stimulated with a final concentration of 3 ng/ml bFGF (Sigma, F029 1) for 20 minutes at 37° C. Following stimulation the cells were fixed by adding formaldehyde (4% v/v final concentration) and incubating at room temperature for 20 minutes. The fixative solution was then removed and the wells were washed twice with 100μl phosphate buffered saline (PBS/A) before permeabilising the cells by the addition of 50 μl/well 0.1% triton/PBS/A for 10 minutes at room temperature. The permeabilisation solution was then removed and the cells washed twice more with 100 μl/well PBS/A before the addition of 50 μl/well anti-phospho p44/42 (Cell Signalling Technology, 9106), diluted 1/500 with PBS/A plus 10% FCS. The anti-phospho p44/42 antibody recognises Erk phosphorylated at threonine 202 and tyrosine 204. […] Finally, the plates were washed three times with 100 μl/well PBS/A, leaving the final wash in the wells before sealing the plates. The plates were read at 350 nm and 488 nm using an Arrayscan (Cellomics).

[7] = Cos-1 cells, phospho-FGFR1, ECHO dosing, upper bound of bin, read-out: IC50
[8] = FGFR1 kinase, Caliper, upper bound of bin, read-out: IC50
[9] = Cos-1 cells, phospho-FGFR1, upper bound of bin, read-out: IC50

T1 sequence (P11362 458-765 C488A/C584S): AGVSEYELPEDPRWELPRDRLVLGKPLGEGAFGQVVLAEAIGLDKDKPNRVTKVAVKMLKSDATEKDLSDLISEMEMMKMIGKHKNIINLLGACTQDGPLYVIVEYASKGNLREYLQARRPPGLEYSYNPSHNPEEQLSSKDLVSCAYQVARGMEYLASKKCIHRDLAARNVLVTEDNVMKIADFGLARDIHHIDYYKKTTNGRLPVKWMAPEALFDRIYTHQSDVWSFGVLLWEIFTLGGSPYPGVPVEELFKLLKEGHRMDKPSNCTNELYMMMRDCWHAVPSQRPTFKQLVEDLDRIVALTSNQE
Chain of FGFR1 kinase (P11362 22-822): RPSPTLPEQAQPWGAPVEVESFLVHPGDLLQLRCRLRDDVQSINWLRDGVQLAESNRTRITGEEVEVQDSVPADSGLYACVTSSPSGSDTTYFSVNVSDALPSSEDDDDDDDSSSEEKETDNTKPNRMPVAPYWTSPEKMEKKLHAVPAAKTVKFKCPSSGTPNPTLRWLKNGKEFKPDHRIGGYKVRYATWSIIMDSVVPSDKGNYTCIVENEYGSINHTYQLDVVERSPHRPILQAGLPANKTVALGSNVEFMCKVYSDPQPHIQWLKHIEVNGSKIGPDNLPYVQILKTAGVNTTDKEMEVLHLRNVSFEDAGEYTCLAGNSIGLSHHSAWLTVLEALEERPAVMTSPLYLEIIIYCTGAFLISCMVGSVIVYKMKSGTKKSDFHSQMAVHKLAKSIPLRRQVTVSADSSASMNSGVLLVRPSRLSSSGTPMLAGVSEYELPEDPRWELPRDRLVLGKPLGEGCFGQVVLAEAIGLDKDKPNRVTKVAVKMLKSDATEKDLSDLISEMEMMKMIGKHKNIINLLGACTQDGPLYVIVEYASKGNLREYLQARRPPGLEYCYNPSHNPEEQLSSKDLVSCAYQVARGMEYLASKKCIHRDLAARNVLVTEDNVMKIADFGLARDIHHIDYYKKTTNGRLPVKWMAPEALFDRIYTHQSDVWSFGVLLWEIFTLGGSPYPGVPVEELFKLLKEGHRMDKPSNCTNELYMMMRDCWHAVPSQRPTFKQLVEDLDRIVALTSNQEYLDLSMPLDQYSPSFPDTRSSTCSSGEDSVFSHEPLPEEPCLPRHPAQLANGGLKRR
T2 sequence (P11362 22-822): as above
T3 sequence (P08069 31-1367): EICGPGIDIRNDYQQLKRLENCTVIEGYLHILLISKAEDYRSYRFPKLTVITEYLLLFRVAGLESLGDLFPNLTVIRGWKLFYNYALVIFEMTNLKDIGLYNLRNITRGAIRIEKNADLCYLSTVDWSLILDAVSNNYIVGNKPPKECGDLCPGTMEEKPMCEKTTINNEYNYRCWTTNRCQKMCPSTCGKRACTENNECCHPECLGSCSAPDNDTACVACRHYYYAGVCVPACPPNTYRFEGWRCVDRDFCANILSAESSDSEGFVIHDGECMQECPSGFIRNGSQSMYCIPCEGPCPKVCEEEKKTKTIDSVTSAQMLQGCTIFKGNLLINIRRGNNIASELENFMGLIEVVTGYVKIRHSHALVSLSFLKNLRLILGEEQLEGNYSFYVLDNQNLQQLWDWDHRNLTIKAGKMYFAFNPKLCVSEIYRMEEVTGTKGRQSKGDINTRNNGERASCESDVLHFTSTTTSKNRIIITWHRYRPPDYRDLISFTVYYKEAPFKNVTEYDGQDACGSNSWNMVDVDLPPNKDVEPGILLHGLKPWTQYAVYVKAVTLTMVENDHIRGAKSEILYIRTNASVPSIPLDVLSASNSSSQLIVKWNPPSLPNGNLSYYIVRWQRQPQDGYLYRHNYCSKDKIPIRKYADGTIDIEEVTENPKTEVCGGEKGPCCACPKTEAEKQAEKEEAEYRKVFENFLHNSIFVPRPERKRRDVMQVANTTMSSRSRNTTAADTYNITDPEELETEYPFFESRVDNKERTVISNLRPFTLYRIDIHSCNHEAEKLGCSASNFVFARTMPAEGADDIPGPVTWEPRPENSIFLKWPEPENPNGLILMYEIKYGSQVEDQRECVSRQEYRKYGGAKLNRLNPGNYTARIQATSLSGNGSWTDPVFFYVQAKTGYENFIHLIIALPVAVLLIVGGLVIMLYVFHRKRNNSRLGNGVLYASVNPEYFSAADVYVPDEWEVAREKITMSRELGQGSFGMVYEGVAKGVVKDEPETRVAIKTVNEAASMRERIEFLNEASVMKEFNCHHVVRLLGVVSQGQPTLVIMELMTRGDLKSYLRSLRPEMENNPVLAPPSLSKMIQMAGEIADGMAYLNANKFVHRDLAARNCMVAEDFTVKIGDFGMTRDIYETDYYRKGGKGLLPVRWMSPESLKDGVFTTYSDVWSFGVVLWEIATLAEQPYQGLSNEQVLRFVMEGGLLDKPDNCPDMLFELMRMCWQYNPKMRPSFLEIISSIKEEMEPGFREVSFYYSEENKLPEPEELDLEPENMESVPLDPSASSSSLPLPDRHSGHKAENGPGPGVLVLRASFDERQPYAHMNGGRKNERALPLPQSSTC

| pIC50 [1] | pIC50 [2, 7] | pIC50 [3, 8] | pIC50 [4, 9] | pIC50 [5] | SMILES | pIC50 [6] | pIC50 [3] | pIC50 [4] | pIC50 [2] | pIC50 ([6]; upper bound of bin) |
| --- | --- | --- | --- | --- | --- | --- | --- | --- | --- | --- |
| 6.00 to 7.00 | > 6.00 | – | – | – | Cc1cc(CN(C)c2nccc(Nc3cc(C)[nH]n3)n2)on1 [Example 2, N-methyl-N-[(3-methylisoxazol-5-yl)methyl]-N′-(5-methyl-2H-pyrazol-3-yl)pyrimidine-2,4-diamine] | – | – | – | – | – |
| > 7.00 | > 6.70 | – | – | – | CCCc1cc(Nc2ccnc(NCc3cc(C4CC4)no3)n2)n[nH]1 [Example 7, N-[(3-cyclopropyl-1,2-oxazol-5-yl)methyl]-N′-(5-propyl-2H-pyrazol-3-yl)pyrimidine-2,4-diamine] | – | – | – | – | – |
| > 7.00 | > 6.00 | – | – | – | CCCc1cc(Nc2ccnc(NCc3cc(C(N)=O)no3)n2)n[nH]1 [Example 8, 5-[[[4-[(5-propyl-1H-pyrazol-3-yl)amino]pyrimidin-2-yl]amino]methyl]-1,2-oxazole-3-carboxamide] | – | – | – | – | – |
| 6.00 to 7.00 | > 5.00 | – | – | – | CCOCCCc1cc(Nc2ccnc(NCc3cc(C)no3)n2)n[nH]1 [Example 20, N′-[5-(3-ethoxypropyl)-2H-pyrazol-3-yl]-N-[(3-methyl-1,2-oxazol-5-yl)methyl]pyrimidine-2,4-diamine] | – | – | – | – | – |
| > 7.00 | > 6.00 | – | – | – | CCOCCCc1cc(Nc2ccnc(NCc3cc(C4CC4)no3)n2)[nH]n1 [Example 21, N-[(3-cyclopropyl-1,2-oxazol-5-yl)methyl]-N′-[5-(3-ethoxypropyl)-2H-pyrazol-3-yl]pyrimidine-2,4-diamine] | – | – | – | – | – |
| 6.00 to 7.00 | > 4.52 | – | – | – | CCOCCCc1cc(Nc2ccnc(NCc3cc(C(N)=O)no3)n2)[nH]n1 [Example 22, 5-[[[4-[[5-(3-ethoxypropyl)-2H-pyrazol-3-yl]amino]pyrimidin-2-yl]amino]methyl]-1,2-oxazole-3-carboxamide] | – | – | – | – | – |
| – | > 6.00 | > 6.70 | > 6.00 | 5.00 to 6.00 | Cc1cc(CNc2nccc(Nc3cc(CCc4cccc(O)c4)[nH]n3)n2)on1 [Example 41, 3-[2-[5-[[2-[(3-methyl1,2-oxazol-5-yl)methylamino]pyrimidin-4-yl]amino]-1H-pyrazol-3-yl]ethyl]phenol] | > 6.70 | – | – | – | – |
| – | > 6.00 | > 6.70 | > 6.00 | < 5.00 | Cc1cccc(CCc2cc(Nc3ccnc(NCc4cc(C)no4)n3)n[nH]2)c1 [Example 52, N-[(3-methyl1,2-oxazol-5-yl)methyl]-N′-[5-[2-(3-methylphenyl)ethyl]-1H-pyrazol-3-yl]pyrimidine-2,4-diamine hydrochloride] | > 6.70 | – | – | – | – |
| – | > 6.00 | > 6.70 | > 6.00 | < 5.00 | CNC(=O)c1cccc(COc2cc(Nc3ccnc(NCc4cc(C)no4)n3)n[nH]2)c1 [Example 91, N-methyl-3-[[5-[[2-[(3-methyl1,2-oxazol-5-yl)methylamino]pyrimidin-4-yl]amino]-1H-pyrazol-3-yl]oxymethyl]benzamide] | > 6.70 | – | – | – | – |
| – | > 6.00 | > 6.00 | > 6.00 | < 5.00 | Cc1cc(CNc2nccc(Nc3cc(OCc4cccc(Cl)c4)[nH]n3)n2)on1 [Example 93, N′-[5-[(3-chlorophenyl)methoxy]-1H-pyrazol-3-yl]-N-[(3-methyl1,2-oxazol-5-yl)methyl]pyrimidine-2,4-diamine hydrochloride] | > 6.70 | – | – | – | – |
| – | > 6.70 | > 6.00 | > 6.00 | < 5.00 | Cc1cc(CNc2nccc(Nc3cc(OCc4cccc(F)c4)[nH]n3)n2)on1 [Example 94, N′-[5-[(3-fluorophenyl)methoxy]-1H-pyrazol-3-yl]-N-[(3-methyl1,2-oxazol-5-yl)methyl]pyrimidine-2,4-diamine hydrochloride] | > 6.70 | – | – | – | – |
| – | – | > 5.00 | > 5.00 | < 5.00 | Cc1cc(CNc2nccc(Nc3cc(OCc4cccc(C(F)(F)F)c4)[nH]n3)n2)on1 [Example 95, N-[(3-methyl1,2-oxazol-5-yl)methyl]-N′-[5-[[3-(trifluoromethyl)phenyl]methoxy]-1H-pyrazol-3-yl]pyrimidine-2,4-diamine hydrochloride] | – | – | – | – | > 5.00 |
| – | > 6.70 | – | > 6.70 | 5.00 to 6.00 | COC(=O)c1cccc(COc2cc(Nc3ccnc(NCc4cc(C)no4)n3)n[nH]2)c1 [Example 97, Methyl 3-[[5-[[2-[(3-methyl1,2-oxazol-5-yl)methylamino]pyrimidin-4-yl]amino]-1H-pyrazol-3-yl]oxymethyl]benzoate hydrochloride] | > 6.70 | – | – | – | – |
| – | – | > 5.00 | > 5.00 | 5.00 to 6.00 | COc1cc(COc2cc(Nc3ccnc(NCc4cc(C)no4)n3)n[nH]2)ccc1F [Example 100, N′-[5-[(4-fluoro-3-methoxy-phenyl)methoxy]-1H-pyrazol-3-yl]-N-[(3-methyl1,2-oxazol-5-yl)methyl]pyrimidine-2,4-diamine hydrochloride] | – | – | – | – | > 5.00 |
| – | – | > 6.00 | > 5.00 | < 5.00 | Cc1cc(CNc2nccc(Nc3cc(-c4ccco4)[nH]n3)n2)on1 [Example 105, N′-[5-(2-furyl)-1H-pyrazol-3-yl]-N-[(3-methyl1,2-oxazol-5-yl)methyl]pyrimidine-2,4-diamine] | – | – | – | – | > 6.00 |
| – | – | > 6.00 | > 5.00 | < 5.00 | Cc1cc(CNc2nccc(Nc3cc(CCC4CCOC4)[nH]n3)n2)on1 (stereo not shown) [Example 109, N-[(3-methyl1,2-oxazol-5-yl)methyl]-N′-[5-[2-(oxolan-3-yl)ethyl]-1H-pyrazol-3-yl]pyrimidine-2,4-diamine] | – | – | – | – | > 5.00 |
| – | – | > 6.70 | > 6.00 | 5.00 to 6.00 | Cc1cc(CNc2nccc(Nc3cc(CCc4ccoc4)[nH]n3)n2)on1 [Example 110, N′-[5-[2-(3-furyl)ethyl]-1H-pyrazol-3-yl]-N-[(3-methyl1,2-oxazol-5-yl)methyl]pyrimidine-2,4-diamine] | – | – | – | – | > 6.00 |
| – | > 6.70 | > 6.70 | > 6.00 | 5.00 to 6.00 | c1coc(CCc2cc(Nc3ccnc(NCc4cc(C5CC5)no4)n3)n[nH]2)c1 [Example 111, N-[(3-cyclopropyl1,2-oxazol-5-yl)methyl]-N′-[5-[2-(2-furyl)ethyl]-2H-pyrazol-3-yl]pyrimidine-2,4-diamine] | > 6.70 | – | – | – | – |
| – | – | > 6.70 | > 5.00 | 5.00 to 6.00 | c1cnc(-c2cc(CNc3nccc(Nc4cc(CCc5ccco5)[nH]n4)n3)on2)nc1 [Example 113, N′-[5-[2-(2-furyl)ethyl]-2H-pyrazol-3-yl]-N-[(3-pyrimidin-2-yl1,2-oxazol-5-yl)methyl]pyrimidine-2,4-diamine] | – | – | – | – | > 5.00 |
| – | – | > 6.00 | > 4.52 | < 5.00 | Cc1cc(CNc2nccc(Nc3cc(CCc4cc(C)nn4C)[nH]n3)n2)on1 [Example 118, N′-[5-[2-(2,5-dimethylpyrazol-3-yl)ethyl]-1H-pyrazol-3-yl]-N-[(3-methyl-1,2-oxazol-5-yl)methyl]pyrimidine-2,4-diamine] | – | – | – | – | > 4.52 |

| SMILES | pIC50 [1] | pIC50 [2, 7] | pIC50 [3, 8] | pIC50 [4, 9] | pIC50 [5] | pIC50 [6] | pIC50 [3] | pIC50 [4] | pIC50 [2] | pIC50 ([6]; upper bound of bin) |
| --- | --- | --- | --- | --- | --- | --- | --- | --- | --- | --- |
| COc1cc(CCc2cc(Nc3ccnc(NCc4cc(C)no4)n3)n[nH]2)cc(OC)c1 [Example 42, N′-[5-[2-(3,5-dimethoxyphenyl)ethyl]-2H-pyrazol-3-yl]-N-[(3-methyl1,2-oxazol-5-yl)methyl]pyrimidine-2,4-diamine] | – | – | – | – | 5.00 to 6.00 | > 6.70 | > 6.70 | > 6.70 | > 6.70 | – |
